Patent US4525348A, “Pranoprofen gelled ointment” (priority 1983, dated 1985)

Columns and labels:
[1] = oral administration, as compared with indomethacin or other nonsteroid agents; cited from earlier work
[2] = Percutaneous absorption and excretion (Experiment 8); details: rat
Text: Male Donryu rats weighing 120-140 g were divided into groups of 4 animals each. The backs of the rats were shaved with an electric clipper and an electric shaver. […] After this application, the test ointment remaining was wiped off at a set time with absorbent cotton moistened with 50% ethanol. The contained ^14 C was eluted with methanol and determined by conventional methods.

CC(C(=O)O)c1ccc2c(c1)Cc1cccnc1O2 (stereo not drawn) [pranoprofen]
Adverse effects such as gastroenteric disorders [1]: very rarely | Half life of disappearance from blood ([2]; absorbed pranoprofen, topical): about 5 hours | Excretion route ([2]; in vivo): excreted mainly into urine and feces
